Laboratory results reported in patent publication US7009045B2 (priority 2000, dated 2006).

Legend:
Assay type in all cases: cell-based
[1] = system: Candida famata wild type and regulatory mutants able to overproduce riboflavin on iron-rich medium; assay: Sensitivity after electroporation to 3CdSO4.8H20, Burkholder medium with 0.3 M sucrose (Table 20); set-up: key: +++: strong growth; ++: weak growth; —: absence of growth
Experimental: (§1) Next, the toxicity of CdSO4 (0–25 μM) to regulatory mutants 2-5 and 4-48 and the C. famata wild strain was studied in the medium with sucrose (Table 20).
(§2) It was shown that all three strains appeared to be very sensitive to Cd^+2 ions without any differences between regulatory mutants and the wild-type strain.

[2] = system: Candida famata wild type and regulatory mutants able to overproduce riboflavin on iron-rich medium; assay: as above; set-up: key: +++: strong growth; ++: weak growth; +: very weak growth; —: absence of growth
Experimental: as §1, §2

[3] = system: Candida famata regulatory mutants unable to overproduce riboflavin; assay: Sensitivity to monofluoroacetate, Burkholder medium with 0.5% glycerol (Table 7); settings: MFA 0.2–0.4%
Source text: (§3) In further experiments, the influence of the aconitase inhibitor, 2-monofluoroacetate (MFA), on the growth of C.famata regulatory mutants unable to overproduce riboflavin was studied in media with glucose (0.5%) or glycerol (0.5%) as the carbon sources.

[4] = system: Candida famata regulatory mutants unable to overproduce riboflavin; assay: Sensitivity to monofluoroacetate, Burkholder medium with 0.5% glucose (Table 8)
Source text: as §3

| Compound | growth ([1]; #2-5, 5 μM) | growth ([1]; #2-5, 10 μM) | growth ([1]; #2-5, 25 μM) | growth ([1]; #4-48, 5 μM) | growth ([1]; #4-48, 10 μM) | growth ([1]; #4-48, 25 μM) | growth ([1]; VKM Y-9, 5 μM) | growth ([1]; VKM Y-9, 10 μM) | growth ([1]; VKM Y-9, 25 μM) | growth ([2]; #2-5, 15 μM) | growth ([2]; #2-5, 20 μM) | growth ([2]; #4-48, 15 μM) | growth ([2]; #4-48, 20 μM) | growth ([2]; VKM Y-9, 15 μM) | growth ([2]; VKM Y-9, 20 μM) | effect on growth of wild type VKM Y-9 and leu2 auxotroph L20105 [3] | effect on growth of most regulatory mutants [4] |
| --- | --- | --- | --- | --- | --- | --- | --- | --- | --- | --- | --- | --- | --- | --- | --- | --- | --- |
| O.O.O.O.O.O.O.O.O=S(=O)([O-])[O-].O=S(=O)([O-])[O-].O=S(=O)([O-])[O-].[Cd+2].[Cd+2].[Cd+2] [CdSO4×8H2O] | ++ | ++ | — | ++ | ++ | — | +++ | ++ | — | + | + | + | + | + | + |  |  |
| O=C(O)CF [MFA, 2-monofluoroacetate] |  |  |  |  |  |  |  |  |  |  |  |  |  |  |  | not inhibited at all | did not inhibit growth |
